Results taken from patent publication US5434182A (priority 1993, dated 1995).
Where “and” joins values, the source holds several entries; their conditions need not be identical. Identical values can stand only once. Entries after “also recorded” stand apart in the source; their conditions may differ. Counter-ions that a name gives are not always drawn. Like-named read-outs stand apart in the source and are kept apart here.

What was measured:
VSV [1] = test: microbe, parasite or virus in culture; assay type: cell-based, vesicular stomatitis virus
Total White Blood Cells = test: Stability of white blood cells in whole human blood to added lipid; assay type: cell-based; set-up: unit not given here; settings: 15 mM, control 6.4
Description: Further testing has shown the effect of monoglyceride esters and ether on the total white blood cell concentration in whole human blood.

VSV [2] = test: microbe, parasite or virus in culture; assay type: cell-based, vesicular stomatitis virus strain Indiana; settings: for minimal effective concentration: read-out: lowest concentration which reduced the VSV titer by ≥4.0 log10 units; for antiviral effect in words: fatty acids of Table 2
poliovirus = assay type: cell-based, Poliovirus type 1 strain Chat; settings: 8 mg/ml, 37° C., 30 min; control 10^4.7 TCID50
HSV-1 = test: microbe, parasite or virus in culture; assay type: cell-based, herpes simplex virus type 1 strain MacIntyre; settings: 37° C., 30 min; for log reduction at 2000 µg/mL: 2 mg/ml
Visna virus = test: microbe, parasite or virus in culture; assay type: cell-based, Visna virus strain K796; settings: 37° C., 30 min; for log reduction at 2000 µg/mL: 2 mg/ml
VSV [3] = test: microbe, parasite or virus in culture; assay type: cell-based, vesicular stomatitis virus; settings: for log reduction at 5000 µM / log reduction at 10000 µM: Vesicular stomatitis virus, read-out: Log10 Reduction in VSV Titer
VSV [4] = test: microbe, parasite or virus in culture; assay type: cell-based, vesicular stomatitis virus strain Indiana
sperm = test: Spermicidal test: motility and viability of sperm in semen; assay type: cell-based; settings: for coating of sperm: B, D 100 mM in semen, 30 minutes
Procedure: The fatty acids and derivatives thereof disclosed here are useful as spermicides and in the treatment of sexually transmitted diseases. […] Four samples tested were comprised as follows:
Five test tubes were prepared, one for each of Samples A to D and a Control. An amount of 0.5 ml of active semen was added to each test tube. Each of Samples A and B and the Control was at 37° C., and Samples C and D were at room temperature. The percentages of motility and viability were measured from 15 seconds to 5 minutes in the case of each of Samples A to D and from 15 seconds to 2 hours for the Control.

[5] = Vesicular stomatitis virus, 0.5 h, read-out: Reduction of virus titer, VSV
[6] = Vesicular stomatitis virus, 0.5 h
[7] = Human alphaherpesvirus 1, 0.5 h, read-out: Reduction of virus titer, HSV-1
[8] = Visna-maedi virus, 0.5 h, read-out: Reduction of virus titer, VV (visna virus)
[9] = 100 mM in semen, 5 min., Sample B 37° C., Sample D room temperature
[10] = 150 mM in semen, 3 min., Sample A 37° C., Sample C room temperature
[11] = 150 mM in semen, 5 min., Sample A 37° C., Sample C room temperature

CCCCCCCCCCOC[C@@H](O)CO [1-O-Decyl-sn-glycerol, 1-O-decyl-sn-glycerol]
Reduction in VSV titer (VSV [1]; 5 mM, with 10 mM sodium taurocholate, human plasma, 37° 30 min): 0 Log10
antiviral activity of MG ethers relative to esters, in words (VSV [1]; human plasma): just as effective as the naturally occurring esters
Total White Blood Cells (Total White Blood Cells): 1.31

CCCCCCCC/C=C\CCCCCCCCOC[C@@H](O)CO [1-O-Oleyl-sn-glycerol, 1-O-oleyl-sn-glycerol]
log reduction at 5000 µM (VSV [1]; Vesicular stomatitis virus, 0.5 h, read-out: Reduction in VSV Titer, 5 mM, no sodium taurocholate, human plasma, 37° 30 min): 0
log reduction at 10000 µM (VSV [1]; Vesicular stomatitis virus, 0.5 h, read-out: Reduction in VSV Titer, 10 mM, no sodium taurocholate, human plasma, 37° 30 min): 0
log reduction at 15000 µM (VSV [1]; Vesicular stomatitis virus, 0.5 h, read-out: Reduction in VSV Titer, 15 mM, no sodium taurocholate, human plasma, 37° 30 min): 0
antiviral activity of MG ethers relative to esters, in words (VSV [1]; human plasma): same lack of antiviral activity as the ester

CCCCC/C=C\C/C=C\C/C=C\C/C=C\CCCC(=O)O [Arachidonic (20:4), arachidonic acid]
log reduction at 500 µg/mL (VSV [2]; [5]): ≥ 4
minimal effective concentration (VSV [2]; [6]): 500 µg/mL and 1600 µM
reduction of poliovirus titer (poliovirus): did not cause a significant reduction of virus titer

CCCC(=O)O [Butyric (4:0), Butyric]
log reduction at 10000 µg/mL (VSV [2]; [5]): 0
antiviral effect in words (VSV [2]): no or a very small antiviral effect

CCCCCCCCCC(=O)O [Capric (10:0), Capric]
log reduction at 4000 µg/mL (VSV [2]; [5]): ≥ 4
minimal effective concentration (VSV [2]; [6]): 4000 µg/mL and 22000 µM
log reduction at 4000 µg/mL (HSV-1; Human alphaherpesvirus 1, 0.5 h, 4 mg/ml, read-out: Reduction of virus titer, HSV-1): ≥ 4
log reduction at 4000 µg/mL (Visna virus; Visna-maedi virus, 0.5 h, 4 mg/ml, read-out: Reduction of virus titer, VV (visna virus)): ≥ 3.2
reduction of poliovirus titer (poliovirus): did not cause a significant reduction of virus titer

CCCCCC(=O)O [Caproic (6:0), Caproic]
log reduction at 10000 µg/mL (VSV [2]; [5]): 0
antiviral effect in words (VSV [2]): no or a very small antiviral effect

CCCCCCCC(=O)O [Caprylic (8:0), Caprylic]
log reduction at 10000 µg/mL (VSV [2]; [5]): 1.8
antiviral effect in words (VSV [2]): no or a very small antiviral effect
log reduction at 10000 µg/mL (Visna virus; Visna-maedi virus, 0.5 h, 10 mg/ml, read-out: Reduction of virus titer, VV (visna virus)): ≥ 3.2

CCCCCCCC/C=C/CCCCCCCC(=O)O [Elaidic (18:1 trans), Elaidic]
log reduction at 2000 µg/mL (VSV [2]; [5]): ≥ 4
minimal effective concentration (VSV [2]; [6]): 2000 µg/mL and 7000 µM

CCCCCCCCCCCC(=O)OC[C@@H](O)COP(=O)([O-])OCC[N+](C)(C)C [L-α-Lysophosphatidylcholine lauroyl]
Log10 Reduction in VSV Titer (VSV [3]): 1.7 Log10 and 2.0 Log10
log reduction at 5000 µM (VSV [3]): 1.2
log reduction at 10000 µM (VSV [3]): 2

CCCCCCCCCC(=O)OC[C@@H](O)COP(=O)([O-])OCC[N+](C)(C)C [L-α-lysophosphatidylcholine decanoyl]
Log10 Reduction in VSV Titer (VSV [3]): 1.7 Log10
log reduction at 5000 µM (VSV [3]): 1.7
log reduction at 10000 µM (VSV [3]): 1

CC/C=C\C/C=C\C/C=C\CCCCCCCC(=O)O [Linolenic (18:3), Linolenic]
Reduction of virus titer, VSV (VSV [2]; 1 mg/ml, 37° C., 30 min): ≥ 4.0 log10
lowest concentration which reduced the VSV titer by ≥4.0 log10 units (VSV [2]; 37° C., 30 min): 1 mg/ml and 3.6 mM
Reduction of virus titer, HSV-1 (HSV-1; 1 mg/ml): ≥ 4.0 log10
Reduction of virus titer, VV (visna virus) (Visna virus; 1 mg/ml): ≥ 3.2 log10
reduction of poliovirus titer (poliovirus): did not cause a significant reduction of virus titer

CCCCCCCC/C=C\CCCCCCCC(=O)OCC(O)CO (centres unmarked) [Monoolein (18:1), Monoolein]
concentration with highest antiviral activity of the concentrations tested (0.5 to 4 mg/ml) (VSV [4]; VSV, 37° C., 30 min): 1.0 mg/ml and 2.8 mM
log reduction at 1000 µg/mL (VSV [4]; [5]): 2.3

CCCCCCCC/C=C\CCCCCCCC(=O)O [Oleic (18:1 cis), Oleic]
log reduction at 2000 µg/mL (VSV [2]; [5]): ≥ 4
minimal effective concentration (VSV [2]; [6]): 2000 µg/mL and 7000 µM
log reduction at 2000 µg/mL (HSV-1; [7]): ≥ 4
log reduction at 2000 µg/mL (Visna virus; [8]): ≥ 3.2
reduction of poliovirus titer (poliovirus): did not cause a significant reduction of virus titer

CCCCCCCCCCCCCCCC(=O)O [Palmitic (16:0), Palmitic]
log reduction at 20000 µg/mL (VSV [2]; [5]): 1
antiviral effect in words (VSV [2]): no or a very small antiviral effect
log reduction at 20000 µg/mL (HSV-1; Human alphaherpesvirus 1, 0.5 h, 20 mg/ml, read-out: Reduction of virus titer, HSV-1): 1
log reduction at 20000 µg/mL (Visna virus; Visna-maedi virus, 0.5 h, 20 mg/ml, read-out: Reduction of virus titer, VV (visna virus)): 0.7

CCCCCC/C=C\CCCCCCCC(=O)O [Palmitoleic (16:1), Palmitoleic]
log reduction at 2000 µg/mL (VSV [2]; [5]): ≥ 4
minimal effective concentration (VSV [2]; [6]): 2000 µg/mL and 15000 µM
log reduction at 2000 µg/mL (HSV-1; [7]): ≥ 4
log reduction at 2000 µg/mL (Visna virus; [8]): ≥ 3.2
reduction of poliovirus titer (poliovirus): did not cause a significant reduction of virus titer

CCCCCCCCCCCCCCCCCC(=O)O [Stearic (18:0), Stearic]
log reduction at 20000 µg/mL (VSV [2]; [5]): 0
antiviral effect in words (VSV [2]): no or a very small antiviral effect

CCCCC/C=C\C/C=C\CCCCCCCC(=O)O [sodium salt of linoleic acid]
antiviral effect in words (VSV [2]): antiviral effects similar to those of the free acids

CCCCCCCC/C=C\CCCCCCCC(=O)O [sodium salt of oleic acid]
antiviral effect in words (VSV [2]): antiviral effects similar to those of the free acids

L-α-lysophosphatidylcholine caproyl
Log10 Reduction in VSV Titer (VSV [3]; 5 mM, no sodium taurocholate): 0 Log10
Log10 Reduction in VSV Titer (VSV [3]; 5 mM, with 10 mM sodium taurocholate): 0 Log10
Log10 Reduction in VSV Titer (VSV [3]; 10 mM, no sodium taurocholate): 0 Log10
Log10 Reduction in VSV Titer (VSV [3]; 10 mM, with 10 mM sodium taurocholate): 0 Log10
Log10 Reduction in VSV Titer (VSV [3]; 15 mM, no sodium taurocholate): 0 Log10
Log10 Reduction in VSV Titer (VSV [3]; 15 mM, with 10 mM sodium taurocholate): 1.0 Log10

N-dodecylsucrose
% mot. (sperm; 100 mM in semen, 15 sec., Sample B 37° C., Sample D room temperature): 17%
% mot. (sperm; 100 mM in semen, 30 sec., Sample B 37° C., Sample D room temperature): 9%
% mot. (sperm; 100 mM in semen, 1 min., Sample B 37° C., Sample D room temperature): 2%
% mot. (sperm; 100 mM in semen, 2 min., Sample B 37° C., Sample D room temperature): 0%
% mot. (sperm; 100 mM in semen, 3 min., Sample B 37° C., Sample D room temperature): 0%
% mot. (sperm; [9]): 0%
% via. (sperm; [9]): 0%
% mot. (sperm; 150 mM in semen, 15 sec., Sample A 37° C., Sample C room temperature): 0%
% mot. (sperm; 150 mM in semen, 30 sec., Sample A 37° C., Sample C room temperature): 0%
% mot. (sperm; 150 mM in semen, 1 min., Sample A 37° C., Sample C room temperature): 0%
% mot. (sperm; 150 mM in semen, 2 min., Sample A 37° C., Sample C room temperature): 0%
% mot. (sperm; [10]): 0%
% via. (sperm; [10]): 0%
% mot. (sperm; [11]): 0%
% via. (sperm; [11]): 0%
time within which 0% viability was effected (sperm; A, C 150 mM, B 100 mM in semen): ≤ 3 min
time within which sperm cells were rendered immobile (sperm; A, C 150 mM, B 100 mM in semen): ≤ 15 s
coating of sperm (sperm; A, C 150 mM, listed as Solution C): coated the sperm effectively; also recorded: most effective in this regard
coating of sperm (sperm; A, C 150 mM, listed as Solution D): did not have any coating effect at all
